According to patent US20250353891A1 (MEDIMMUNE LIMITED, priority 2022, published 2025):
Where two headings read alike, the source gives them in different places. Starred links: 1 amine or outer side, 2 acyl side, 3 side chain; linkers in the order of their positions; H or OH if unused. Non-standard residues stand in square brackets, D forms with d. Residues, ends and D or L forms follow the SMILES beside them. Groups on a side chain read outwards from the residue. *: point of attachment. C20 diacid = O=C(O)CCCCCCCCCCCCCCCCCCC(=O)*; C18 diacid = O=C(O)CCCCCCCCCCCCCCCCC(=O)*; Dip = N[C@H](C(=O)O)C(c1ccccc1)c1ccccc1; γGlu = O=C(O)[C@H](CCC(=O)[*:2])N[*:1]; Stearoyl = CCCCCCCCCCCCCCCCCC(=O)*; αMeF = C[C@](N)(Cc1ccccc1)C(=O)O; Myristoyl = CCCCCCCCCCCCCC(=O)*; Nle = CCCC[C@H](N)C(=O)O; PEG2 = NCCOCCOCCC(=O)O; AEEA = NCCOCCOCC(=O)O; Aib = CC(C)(N)C(=O)O

Assays:
[1] = system: GLP-1R knockout (KO) mice; experiment: Glucose change in GLP-1R knockout mice; assay type: in vivo, mouse; details: GLP-1R KO mice, s.c., 120 min vs 0 min
Description: (§1) They acclimated for a minimum of ˜1-2 weeks, and mice were sorted into groups (n=4-8/group) based on body weight. On day of study, mice were fasted briefly for 2 hrs prior to study start. In some studies, mice were pre-treated with octreotide (BaChem, 10 mg/kg) at 30 minutes prior to peptide injection. Glucose was measured via glucometer at various timepoints including-30 min (prior to octreotide when used in studies), 0 min (before peptide dose), 30, 60, 120, 180, 240, and 360 minutes. Since these studies are acute in nature, mice were re-used for multiple studies (no more than 3) and always allowed at least a minimum wash-out period of 1 week.

[2] = Mouse acute food intake study; assay type: in vivo; details: male C57Bl/6 mice, s.c., cumulative food intake at 24 hr vs vehicle
Method in brief: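 Single-housed male C57Bl/6 mice (8-9 weeks on arrival), chow-fed, acclimated and sham-dosed ≥2 times, were fasted 6-8 h, then given vehicle or peptide subcutaneously at 5 mL/kg 1-2 h before lights out. Food intake was recorded automatically over 48 h and analysed as cumulative intake.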

[3] = target: human glucagon receptor (hGCGR) (Homo sapiens, UniProt P47871); experiment: cAMP production (HTRF) in CHO cells expressing hGCGR; assay type: cell-based; design: expressed in transfected cells; details: cAMP in CHO hGCGR cells, geometric mean, read-out: hGluc-R EC50
Method in brief: (§2)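 Read-out: HTRF cAMP (anti-cAMP cryptate donor, cAMP-d2 acceptor in conjugate/lysis buffer), converted to % Delta F and fitted by 4-parameter logistic for EC50. Cell densities were 1×10^5 cells/mL (hGLP-1R) or 2×10^5 cells/mL (hGCGR). Stimulation lasted 30 min at room temperature.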

[4] = system: wildtype (WT) mice; experiment: Glucose change in wildtype mice; assay type: in vivo, mouse; details: s.c., 120 min vs 0 min
Description: as §1, with “GLP-1R knockout (KO) and wildtype (WT) mice at 8-14 weeks of age were singly housed on standard chow diet (Envigo, 2918) and automatic water. They” for “They”

[5] = target: human GLP-1 receptor (hGLP-1R) (Homo sapiens, UniProt P43220); experiment: cAMP production (HTRF) in CHO cells expressing hGLP-1R; assay type: cell-based; design: expressed in transfected cells; details: for EC50: cAMP in CHO hGLP-1R cells, geometric mean, read-out: hGLP-1R EC50; for % Relative Potency Ratio: % GLP-1R activity relative to GLP-1 / % GlucR activity relative to glucagon
Method in brief: as §2

[6] = 10 nmol/kg, somatostatin pretreatment (octreotide) 30 min prior to cpd
[7] = 30 nmol/kg, somatostatin pretreatment (octreotide) 30 min prior to cpd
[8] = Table 6, peptides modified at position 17
[9] = 3 nmol/kg, no somatostatin pretreatment
[10] = Table 7, peptides modified at position 20
[11] = 10 nmol/kg, no somatostatin pretreatment
[12] = 30 nmol/kg, no somatostatin pretreatment

Chain of human glucagon receptor (hGCGR) (P47871 26-477): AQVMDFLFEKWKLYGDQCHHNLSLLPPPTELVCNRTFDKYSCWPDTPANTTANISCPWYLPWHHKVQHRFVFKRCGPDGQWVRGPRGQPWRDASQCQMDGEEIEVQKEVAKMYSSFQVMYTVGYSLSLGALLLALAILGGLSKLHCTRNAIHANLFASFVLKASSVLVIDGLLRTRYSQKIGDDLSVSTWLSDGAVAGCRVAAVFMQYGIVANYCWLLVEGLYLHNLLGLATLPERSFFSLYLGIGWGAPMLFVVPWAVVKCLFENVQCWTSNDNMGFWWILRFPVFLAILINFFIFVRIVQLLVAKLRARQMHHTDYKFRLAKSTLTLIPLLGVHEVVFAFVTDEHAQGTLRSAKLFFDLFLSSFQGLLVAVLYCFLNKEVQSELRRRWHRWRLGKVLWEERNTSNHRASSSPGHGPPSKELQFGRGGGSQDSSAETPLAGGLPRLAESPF
Chain of human GLP-1 receptor (hGLP-1R) (P43220 24-463): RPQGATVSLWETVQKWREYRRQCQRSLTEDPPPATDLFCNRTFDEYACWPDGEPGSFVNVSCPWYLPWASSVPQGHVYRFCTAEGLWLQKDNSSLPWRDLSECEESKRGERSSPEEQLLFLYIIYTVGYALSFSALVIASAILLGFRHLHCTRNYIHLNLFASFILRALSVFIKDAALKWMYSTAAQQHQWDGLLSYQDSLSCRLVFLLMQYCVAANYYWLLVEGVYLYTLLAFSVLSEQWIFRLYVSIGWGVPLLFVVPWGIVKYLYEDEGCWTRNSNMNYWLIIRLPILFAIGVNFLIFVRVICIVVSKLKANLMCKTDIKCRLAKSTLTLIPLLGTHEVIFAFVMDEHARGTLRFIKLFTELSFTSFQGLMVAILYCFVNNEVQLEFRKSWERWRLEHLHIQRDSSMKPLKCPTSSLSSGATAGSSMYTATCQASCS

| SMILES | GLP-1R KO % glucose change 120 min [1, 6] [%] | GLP-1R KO % glucose change 120 min [1, 7] [%] | 24 hr % Vehicle Food Intake ([2]; dose 10 nmol/kg) [%] | EC50 [3, 8] [nM] | WT % glucose change 120 min [4, 6] [%] | WT % glucose change 120 min [4, 7] [%] | EC50 [5, 8] [nM] | % Relative Potency Ratio ([5]; Table 6) | GLP-1R KO % glucose change 120 min [1, 9] [%] | WT % glucose change 120 min [4, 9] [%] | EC50 [3, 10] [nM] | EC50 [5, 10] [nM] | % Relative Potency Ratio ([5]; Table 7) | GLP-1R KO % glucose change 120 min [1, 11] [%] | GLP-1R KO % glucose change 120 min [1, 12] [%] | 24 hr % Vehicle Food Intake ([2]; dose 3 nmol/kg) [%] | WT % glucose change 120 min [4, 11] [%] | WT % glucose change 120 min [4, 12] [%] |
| --- | --- | --- | --- | --- | --- | --- | --- | --- | --- | --- | --- | --- | --- | --- | --- | --- | --- | --- |
| CCCCCCCCCCCCCC(=O)N[C@@H](CCC(=O)N[C@@H](CCC(=O)NCCOCCOCCC(=O)NCCOCCOCCC(=O)NCCCC[C@H](NC(=O)[C@H](CO)NC(=O)[C@H](CC(=O)O)NC(=O)[C@H](CC(C)C)NC(=O)[C@@H](NC(=O)[C@H](CCCCN)NC(=O)[C@H](CO)NC(=O)[C@@H](NC(=O)[C@H](CC(=O)O)NC(=O)[C@H](CO)NC(=O)[C@@H](NC(=O)[C@](C)(Cc1ccccc1)NC(=O)[C@H](CO)NC(=O)CNC(=O)[C@H](CCC(N)=O)NC(=O)[C@H](CO)NC(=O)[C@@H](N)Cc1c[nH]cn1)[C@@H](C)O)C(C)C)C(c1ccccc1)c1ccccc1)C(=O)N[C@@H](C)C(=O)N[C@@H](C)C(=O)N[C@@H](CCC(N)=O)C(=O)N[C@@H](CC(=O)O)C(=O)N[C@@](C)(Cc1ccccc1)C(=O)N[C@H](C(=O)N[C@@H](CCC(=O)O)C(=O)NC(C)(C)C(=O)N[C@H](C(=O)N[C@H](C(=O)N[C@@H](CC(N)=O)C(=O)N[C@H](C(N)=O)[C@@H](C)O)[C@@H](C)CC)[C@@H](C)CC)C(C)C)C(=O)O)C(=O)O [Peptide 63] (H-HSQGS[αMeF]TSDVSK[Dip]LDSK([PEG2-PEG2-γGlu-γGlu-Myristoyl])AAQD[αMeF]VE[Aib]IINT-NH2; N-terminus assumed) | 68.2 | 113.0 | 37.9 | 0.00249 | −26.4 | −23.8 | 0.00314 | 1.6 |  |  |  |  |  |  |  |  |  |  |
| CCCCCCCCCCCCCCCCCC(=O)N[C@@H](CCC(=O)N[C@@H](CCC(=O)NCCOCCOCCC(=O)NCCOCCOCCC(=O)NCCCC[C@H](NC(=O)[C@H](CO)NC(=O)[C@H](CC(=O)O)NC(=O)[C@H](CC(C)C)NC(=O)[C@](C)(Cc1ccccc1)NC(=O)[C@H](CCCCN)NC(=O)[C@H](CO)NC(=O)[C@@H](NC(=O)[C@H](CC(=O)O)NC(=O)[C@H](CO)NC(=O)[C@@H](NC(=O)[C@H](Cc1ccccc1)NC(=O)[C@@H](NC(=O)CNC(=O)[C@H](CCC(N)=O)NC(=O)C(C)(C)NC(=O)[C@@H](N)Cc1c[nH]cn1)[C@@H](C)O)[C@@H](C)O)C(C)C)C(=O)N[C@@H](CCCNC(=N)N)C(=O)N[C@@H](C)C(=O)N[C@@H](CCC(N)=O)C(=O)N[C@@H](CC(=O)O)C(=O)N[C@@](C)(Cc1ccccc1)C(=O)N[C@H](C(=O)N[C@@H](CCC(N)=O)C(=O)NC(C)(C)C(=O)N[C@@H](CC(C)C)C(=O)N[C@@H](CCCC)C(=O)N[C@@H](CCC(=O)O)C(=O)N[C@H](C(N)=O)[C@@H](C)O)C(C)C)C(=O)O)C(=O)O [Peptide 69] (H-H[Aib]QGTFTSDVSK[αMeF]LDSK([PEG2-PEG2-γGlu-γGlu-Stearoyl])RAQD[αMeF]VQ[Aib]L[Nle]ET-NH2; N-terminus assumed) |  |  | 74.3 |  |  |  |  | 11.1 | 17.6 | −27.2 |  |  |  |  |  |  |  |  |
| CC[C@H](C)[C@H](NC(=O)[C@H](Cc1c[nH]c2ccccc12)NC(=O)[C@H](CCC(N)=O)NC(=O)[C@@H](NC(=O)[C@H](Cc1ccccc1)NC(=O)[C@H](CC(=O)O)NC(=O)[C@H](CCCCNC(=O)COCCOCCNC(=O)COCCOCCNC(=O)CC[C@H](NC(=O)CCCCCCCCCCCCCCCCC(=O)O)C(=O)O)NC(=O)[C@H](C)NC(=O)[C@H](C)NC(=O)[C@H](CCC(N)=O)NC(=O)[C@H](CO)NC(=O)[C@H](CC(=O)O)NC(=O)[C@H](CC(C)C)NC(=O)[C@](C)(Cc1ccccc1)NC(=O)[C@H](CCCCN)NC(=O)[C@H](CO)NC(=O)[C@@H](NC(=O)[C@H](CC(=O)O)NC(=O)[C@H](CO)NC(=O)[C@@H](NC(=O)[C@](C)(Cc1ccccc1)NC(=O)[C@H](CO)NC(=O)CNC(=O)[C@H](Cc1c[nH]cn1)NC(=O)C(C)(C)NC(=O)[C@@H](N)Cc1c[nH]cn1)[C@@H](C)O)C(C)C)C(C)C)C(=O)N[C@@H](C)C(=O)N[C@@H](CC(N)=O)C(=O)N[C@H](C(N)=O)[C@@H](C)O [Peptide 203] (H-H[Aib]HGS[αMeF]TSDVSK[αMeF]LDSQAAK([AEEA-AEEA-γGlu-C18 diacid])DFVQWIANT-NH2; N-terminus assumed) | 54.6 | 106.9 | 81.4 |  | −29.5 | −36.5 |  |  |  |  | 0.0341 | 0.0775 | 0.9 |  |  |  |  |  |
| CC[C@H](C)[C@H](NC(=O)[C@H](Cc1c[nH]c2ccccc12)NC(=O)[C@H](CCC(N)=O)NC(=O)[C@@H](NC(=O)[C@H](Cc1ccccc1)NC(=O)[C@H](CC(=O)O)NC(=O)[C@H](CCCCNC(=O)COCCOCCNC(=O)COCCOCCNC(=O)CC[C@H](NC(=O)CC[C@H](NC(=O)CCCCCCCCCCCCCCCCCCC(=O)O)C(=O)O)C(=O)O)NC(=O)[C@H](C)NC(=O)[C@H](C)NC(=O)[C@H](CCCNC(=N)N)NC(=O)[C@H](CO)NC(=O)[C@H](CC(=O)O)NC(=O)[C@H](CC(C)C)NC(=O)[C@H](Cc1ccc(O)cc1)NC(=O)[C@H](CCCCN)NC(=O)[C@H](CO)NC(=O)[C@@H](NC(=O)[C@H](CC(=O)O)NC(=O)[C@H](CO)NC(=O)[C@@H](NC(=O)[C@](C)(Cc1ccccc1)NC(=O)[C@H](CO)NC(=O)CNC(=O)[C@H](Cc1c[nH]cn1)NC(=O)C(C)(C)NC(=O)[C@@H](N)Cc1c[nH]cn1)[C@@H](C)O)C(C)C)C(C)C)C(=O)N[C@@H](C)C(=O)N[C@@H](CC(N)=O)C(=O)N[C@H](C(N)=O)[C@@H](C)O [Peptide 289] (H-H[Aib]HGS[αMeF]TSDVSKYLDSRAAK([AEEA-AEEA-γGlu-γGlu-C20 diacid])DFVQWIANT-NH2) |  |  | 49.6 |  |  |  |  |  |  |  | 0.148 | 0.118 | 2.5 | 8.9 | 7.7 | 76.1 | −8.5 | −16.1 |
